Key:
APP23 mice = test: Immunoblotting of hippocampus for phosphorylation of CaMKII, CaMKIV and ERK; type: in vivo; details: APP23 mice chronically treated, conditions as Test Example 4
Procedure: The hippocampus of APP23 mouse was excised out. To hippocampal slices, an SDS sample buffer was added to prepare a suspension, which was subjected to immunoblotting using antibodies against CaMKII, CaMKIV and ERK (CaMKII: Fukunaga et al., J. Biol. Chem. 1992, 267, 22527-22533, CaMKIV: Kasahara et al., J. Biol. Chem. 2001, 276, 24044-24050, ERK: manufactured by Sigma-Aldrich). In this manner, phosphorylation of the individual proteins was analyzed. CaMKII, CaMKIV and ERK are molecules all considered to play an important role in memory formation. As a result, it was observed that phosphorylation of CaMKII decreases in ordinary APP23 mice; whereas, in APP23 mice chronically treated with TP-014 (the treatment conditions are the same as in the case of Test Example 4), phosphorylation of CaMKII is accelerated.
GluA1 (Ser-831), Synapsin I (Ser-603) and CREB (Ser-133), which are molecules known to be activated if CaMKII is activated. These molecules were analyzed by immunoblotting of hippocampal slice sections suspended in an SDS sample buffer. Antibodies against the individual molecules were obtained from Millipore. It is shown that activation of GluA1 (Ser-831) and CREB (Ser-133) is induced by activation of CaMKII. FIG. 5a and FIG. 5c show bands (image) actually obtained by electrophoresis of immunoblots.

CaMKIV defective mice = test: Tail-suspension and forced swim methods in CaMKIV defective mice; type: in vivo
Procedure: OBX mice were originally established as depression model mice although a deterioration of cognitive function was observed. Depression was analyzed by a tail-suspension method (a) and a forced swim method (b). The tail-suspension method is a method of pinching the tail of a mouse and hanging the mouse upside down. If the mouse hung has depression, immobility time is long. Since a normal mouse moves even if it is hung, the immobility time is short. In the forced swim method, a mouse is forced to swim in water in a beaker. A mouse having depression neither swims nor moves (just floating). Thus the immobility time is measured. Immobility time was long in OBX mice both in the tail-suspension method (a) and the forced swim method (b). The immobility time of a TP-014 chronic administration group (2 weeks, in the same administration method as that previously mentioned) was improved.
CaMKIV induced by Kir6.1 channel was analyzed by using CaMKIV defective mice (n=5, per group*) in the same manner as in FIG. 12. Acceleration of depression-like symptom was observed also in the CaMKIV defective mice. […] TP-014 had no effect on CaMKIV depression-like symptom (increase of immobility time). […] CaMKIV defective mice were obtained from professor, Hiroyuki Sakagami, Kitasato University School of Medicine (Takao K et al., PLoS One 2010, 5, e9460).

Kir6.2 channel = target: T1, Kir6.2 channel (Mus musculus, UniProt Q61743); test: CaMKII activation in N2A cells overexpressing Kir6.2 channel (immunoblotting, anti-phosphorylated CaMKII antibody); type: cell-based; details: 10 nM, one hour, Kir6.2 channel overexpressing N2A cells; control without compound = 100%
T1 construct: expressed in transfected cells; host or cells: Neuro2A (N2A) cells, transient transfection with pcDNA3.1-Kir6.2 (gift of Dr. Toru Ishizuka, Tohoku University)
T1 sequence (Q61743 1-390): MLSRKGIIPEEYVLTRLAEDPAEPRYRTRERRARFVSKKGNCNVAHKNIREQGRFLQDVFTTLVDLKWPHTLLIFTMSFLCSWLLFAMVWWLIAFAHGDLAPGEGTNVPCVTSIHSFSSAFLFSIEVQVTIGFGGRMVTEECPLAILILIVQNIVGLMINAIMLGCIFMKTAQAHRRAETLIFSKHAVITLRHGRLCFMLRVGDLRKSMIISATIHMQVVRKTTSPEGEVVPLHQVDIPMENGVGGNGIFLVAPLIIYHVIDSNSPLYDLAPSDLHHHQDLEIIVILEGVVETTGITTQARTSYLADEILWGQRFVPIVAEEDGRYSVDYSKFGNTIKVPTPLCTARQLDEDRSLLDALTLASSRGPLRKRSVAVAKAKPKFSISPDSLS
Procedure: A plasmid vector having cDNA of Kir6.2 channel inserted therein: pcDNA3.1-Kir6.2, was obtained from Dr. Toru Ishizuka (Graduate School of Life Sciences, Tohoku University). The plasmid vector, pcDNA3.1-Kir6.2, was conditioned in accordance with the manual attached to GenElute HP Plasmid Maxiprep Kit (manufactured by Sigma-Aldrich). A culture solution (composition: DMEM culture solution 450 mL containing 50 ml of bovine serum and 100 units of penicillin/streptomycin) of Neuro2A cells (N2A cells, the National Instituted of Biomedical Innovation) cultured in DMEM culture solution (Gibco) was exchanged with Opti-Mem (Gibco)(containing Lipofectamine R2000 (1 μg/1 ml)) containing pcDNA3.1-Kir6.2 (1 μg/μl) conditioned above, and cultured for 5 hours to obtain N2A cells overexpressing Kir6.2 channel. Exchange with the DMEM culture solution was again performed and culture was carried out for two days. Thereafter, memantine (manufactured by Sigma-Aldrich) and the compound of the present invention (n=4 per group) were added in the culture solutions (DMEM, Gibco) so as to obtain a concentration of 10 nM based on the culture solution, and the culture solutions were allowed to stand still for one hour. Thereafter, Kir6.2 channel overexpressing N2A cells were collected and an SDS sample buffer was added to the N2A cells to prepare a suspension. The suspension was subjected to immunoblotting by use of an anti-phosphorylated CaMKII antibody (Fukunaga K et al., J. Biol. Chem. 1992, 267, 22527-22533) as a primary antibody and an anti-rabbit IgG antibody (manufactured by SouthernBiotech) as a secondary antibody (other conditions except the aforementioned antibodies were the same as those employed in ordinary immunoblotting), to investigate activation of CaMKII. As a result, in TP-009, TP-010, TP-011, TP-012, TP-014, TP-015, TP-048, TP-049, TP-050, TP-051, TP-052, TP-053, bands showing a reaction with the antibody against phosphorylated CaMKII were obtained. It was confirmed that activation of CaMKII is enhanced. In FIG. 1, the result of the case (control: c) where a test compound was not added is regarded as 100%. CaMKII activation of the cases containing memantine, TP-009, TP-010, TP-011, TP-012, TP-014, TP-015, TP-048, TP-049, TP-050, TP-051, TP-052, TP-053 (corresponding to M, 9, 10, 11, […], 15, 48, 49, 50, 51, 52 and 53, respectively) were shown in FIG. 1.

`O=C(N[C@@H](c1ccccc1)[C@H]1[C@H]2C[C@@H]3C[C@](Cl)(C2)C[C@@]1(OC(=O)C(F)(F)F)C3)C(F)(F)F` [TP-014, (1S,2R,3S,5S,7S)-5-chloro-2-((R)-phenyl(2,2,2-trifluoroacetamido)methyl)adamantan-1-yl 2,2,2-trifluoroacetate] was tested, and the “phosphorylation of CaMKII in hippocampus” value (APP23 mice) was “accelerated”, the “depression-like symptom (increase of immobility time) in CaMKIV defective mice” value (CaMKIV defective mice) was “no effect” and the “activation of CaMKII (phosphorylated CaMKII bands)” value (Kir6.2 channel) was “enhanced”.
